According to ChEMBL document CHEMBL3994568 (2016):
≈ marks a conversion by molar mass, not a printed value.

Legend:
Format in all cases: functional
[1] = tested on: Bacillus; assay: Antibacterial activity against Bacillus proteus ATCC 13315 after 24 hrs by two-fold microbroth dilution method; details: ATCC 13315, 24 h
[2] = tested on: Escherichia coli; assay: Antibacterial activity against Escherichia coli JM109 after 24 hrs by two-fold microbroth dilution method; details: JM109, 24 h
[3] = tested on: Pseudomonas aeruginosa; assay: Antibacterial activity against Pseudomonas aeruginosa ATCC 27853 after 24 hrs by two-fold microbroth dilution method; details: ATCC 27853, 24 h
[4] = Antibacterial activity against Eberthella typhosa ATCC 14028 after 24 hrs by two-fold microbroth dilution method; details: ATCC 14028, 24 h
[5] = tested on: Staphylococcus aureus; assay: Antibacterial activity against methicillin-resistant Staphylococcus aureus N315 after 24 hrs by two-fold microbroth dilution method; details: N315, 24 h
[6] = tested on: Staphylococcus aureus; assay: Antibacterial activity against Staphylococcus aureus ATCC 25923 after 24 hrs by two-fold microbroth dilution method; details: ATCC 25923, 24 h
[7] = tested on: Bacillus spizizenii; assay: Antibacterial activity against Bacillus subtilis ATCC 6633 after 24 hrs by two-fold microbroth dilution method; details: ATCC 6633, 24 h
[8] = tested on: Micrococcus luteus; assay: Antibacterial activity against Micrococcus luteus ATCC 4698 after 24 hrs by two-fold microbroth dilution method; details: NCTC 2665, 24 h
[9] = tested on: Cyberlindnera jadinii; assay: Antifungal activity against Candida utilis ATCC 9950 after 24 hrs by two-fold microbroth dilution method; details: Williopsis jadinii, ATCC 9950, 24 h
[10] = tested on: Aspergillus flavus; assay: Antifungal activity against Aspergillus flavus ATCC 204304 after 24 hrs by two-fold microbroth dilution method; details: ATCC 204304, 24 h
[11] = tested on: Saccharomyces cerevisiae; assay: Antifungal activity against Saccharomyces cerevisiae ATCC 9763 after 24 hrs by two-fold microbroth dilution method; details: ATCC 9763, 24 h
[12] = tested on: Candida albicans; assay: Antifungal activity against Candida albicans ATCC 10231 after 24 hrs by two-fold microbroth dilution method; details: ATCC 10231, 24 h
[13] = tested on: Pichia norvegensis; assay: Antifungal activity against Candida mycoderma ATCC 9888 after 24 hrs by two-fold microbroth dilution method; details: ATCC 9888, 24 h
[14] = tested on: HEp-2; assay: Cytotoxicity against human Hep2 cells assessed as cell viability up to 125 ug/ml after 24 hrs by CCK8 assay relative to control
[15] = tested on: Pseudomonas aeruginosa; assay: Potency index, ratio of chloromycin MIC to compound MIC for Pseudomonas aeruginosa ATCC 27853

Compound: CCn1c2ccc(C(=O)CCl)cc2c2cc(C(=O)CCl)ccc21
- MIC [1]: 512 µg/mL (≈ 1470 µM)
- MIC [2]: 512 µg/mL (≈ 1470 µM)
- MIC [3]: 256 µg/mL (≈ 735 µM)
- MIC [4]: 512 µg/mL (≈ 1470 µM)
- MIC [5]: 512 µg/mL (≈ 1470 µM)
- MIC [6]: 256 µg/mL (≈ 735 µM)
- MIC [7]: 512 µg/mL (≈ 1470 µM)
- MIC [8]: 256 µg/mL (≈ 735 µM)
- MIC [9]: 256 µg/mL (≈ 735 µM)
- MIC [10]: 256 µg/mL (≈ 735 µM)
- MIC [11]: 128 µg/mL (≈ 368 µM)
- MIC [12]: 512 µg/mL (≈ 1470 µM)
- MIC [13]: 128 µg/mL (≈ 368 µM)

Compound: CCn1c2ccc(-c3csc(N)n3)cc2c2cc(-c3csc(N)n3)ccc21
- MIC [1]: 256 µg/mL (≈ 654 µM)
- MIC [2]: 128 µg/mL (≈ 327 µM)
- MIC [3]: 256 µg/mL (≈ 654 µM)
- MIC [4]: 256 µg/mL (≈ 654 µM)
- MIC [5]: 512 µg/mL (≈ 1310 µM)
- MIC [6]: 256 µg/mL (≈ 654 µM)
- MIC [7]: 256 µg/mL (≈ 654 µM)
- MIC [8]: 128 µg/mL (≈ 327 µM)
- MIC [9]: 128 µg/mL (≈ 327 µM)
- MIC [10]: 256 µg/mL (≈ 654 µM)
- MIC [11]: 256 µg/mL (≈ 654 µM)
- MIC [12]: 64 µg/mL (≈ 163 µM)
- MIC [13]: 64 µg/mL (≈ 163 µM)

Compound: CCCCCCCCCCCCCCCCn1c2ccc(C(=O)CCl)cc2c2cc(C(=O)CCl)ccc21
- MIC [1]: 256 µg/mL (≈ 470 µM)
- MIC [2]: 256 µg/mL (≈ 470 µM)
- MIC [3]: 256 µg/mL (≈ 470 µM)
- MIC [4]: 512 µg/mL (≈ 940 µM)
- MIC [5]: 256 µg/mL (≈ 470 µM)
- MIC [6]: 128 µg/mL (≈ 235 µM)
- MIC [7]: 256 µg/mL (≈ 470 µM)
- MIC [8]: 256 µg/mL (≈ 470 µM)
- MIC [9]: 256 µg/mL (≈ 470 µM)
- MIC [10]: 256 µg/mL (≈ 470 µM)
- MIC [11]: 512 µg/mL (≈ 940 µM)
- MIC [12]: 512 µg/mL (≈ 940 µM)
- MIC [13]: 256 µg/mL (≈ 470 µM)

Compound: CCCCCCCCCCn1c2ccc(C(=O)CCl)cc2c2cc(C(=O)CCl)ccc21
- MIC [1]: 256 µg/mL (≈ 556 µM)
- MIC [2]: 512 µg/mL (≈ 1110 µM)
- MIC [3]: 128 µg/mL (≈ 278 µM)
- MIC [4]: 256 µg/mL (≈ 556 µM)
- MIC [5]: 512 µg/mL (≈ 1110 µM)
- MIC [6]: 256 µg/mL (≈ 556 µM)
- MIC [7]: 256 µg/mL (≈ 556 µM)
- MIC [8]: 128 µg/mL (≈ 278 µM)
- MIC [9]: 256 µg/mL (≈ 556 µM)
- MIC [10]: 512 µg/mL (≈ 1110 µM)
- MIC [11]: 256 µg/mL (≈ 556 µM)
- MIC [12]: 256 µg/mL (≈ 556 µM)
- MIC [13]: 256 µg/mL (≈ 556 µM)

Compound: CCCCCn1c2ccc(-c3csc(N)n3)cc2c2cc(-c3csc(N)n3)ccc21
- MIC [1]: 256 µg/mL (≈ 590 µM)
- MIC [2]: 256 µg/mL (≈ 590 µM)
- MIC [3]: 2 µg/mL (≈ 4.61 µM)
- MIC [4]: 128 µg/mL (≈ 295 µM)
- MIC [5]: 128 µg/mL (≈ 295 µM)
- MIC [6]: 64 µg/mL (≈ 148 µM)
- MIC [7]: 256 µg/mL (≈ 590 µM)
- MIC [8]: 64 µg/mL (≈ 148 µM)
- MIC [9]: 128 µg/mL (≈ 295 µM)
- MIC [10]: 256 µg/mL (≈ 590 µM)
- MIC [11]: 128 µg/mL (≈ 295 µM)
- MIC [12]: 128 µg/mL (≈ 295 µM)
- MIC [13]: 64 µg/mL (≈ 148 µM)
- Activity [14]: 85%
- Ratio [15]: 8

Compound: CCCn1c2ccc(C(=O)CCl)cc2c2cc(C(=O)CCl)ccc21
- MIC [1]: 128 µg/mL (≈ 353 µM)
- MIC [2]: 256 µg/mL (≈ 707 µM)
- MIC [3]: 256 µg/mL (≈ 707 µM)
- MIC [4]: 256 µg/mL (≈ 707 µM)
- MIC [5]: 512 µg/mL (≈ 1410 µM)
- MIC [6]: 512 µg/mL (≈ 1410 µM)
- MIC [7]: 512 µg/mL (≈ 1410 µM)
- MIC [8]: 512 µg/mL (≈ 1410 µM)
- MIC [9]: 256 µg/mL (≈ 707 µM)
- MIC [10]: 512 µg/mL (≈ 1410 µM)
- MIC [11]: 256 µg/mL (≈ 707 µM)
- MIC [12]: 256 µg/mL (≈ 707 µM)
- MIC [13]: 512 µg/mL (≈ 1410 µM)

Compound: CCCCCCCCCCCCCCCCCCn1c2ccc(-c3csc(N)n3)cc2c2cc(-c3csc(N)n3)ccc21
- MIC [1]: 256 µg/mL (≈ 416 µM)
- MIC [2]: 128 µg/mL (≈ 208 µM)
- MIC [3]: 512 µg/mL (≈ 831 µM)
- MIC [4]: 256 µg/mL (≈ 416 µM)
- MIC [5]: 512 µg/mL (≈ 831 µM)
- MIC [6]: 256 µg/mL (≈ 416 µM)
- MIC [7]: 256 µg/mL (≈ 416 µM)
- MIC [8]: 512 µg/mL (≈ 831 µM)
- MIC [9]: 256 µg/mL (≈ 416 µM)
- MIC [10]: 256 µg/mL (≈ 416 µM)
- MIC [11]: 256 µg/mL (≈ 416 µM)
- MIC [12]: 256 µg/mL (≈ 416 µM)
- MIC [13]: 512 µg/mL (≈ 831 µM)

Compound: CCCCCCCCCCCCCCCCCCn1c2ccc(C(=O)CCl)cc2c2cc(C(=O)CCl)ccc21
- MIC [1]: 512 µg/mL (≈ 894 µM)
- MIC [2]: 256 µg/mL (≈ 447 µM)
- MIC [3]: 256 µg/mL (≈ 447 µM)
- MIC [4]: 256 µg/mL (≈ 447 µM)
- MIC [5]: 256 µg/mL (≈ 447 µM)
- MIC [6]: 128 µg/mL (≈ 224 µM)
- MIC [7]: 512 µg/mL (≈ 894 µM)
- MIC [8]: 512 µg/mL (≈ 894 µM)
- MIC [9]: 512 µg/mL (≈ 894 µM)
- MIC [10]: 256 µg/mL (≈ 447 µM)
- MIC [11]: 256 µg/mL (≈ 447 µM)
- MIC [12]: 512 µg/mL (≈ 894 µM)
- MIC [13]: 512 µg/mL (≈ 894 µM)

Compound: CCCCCCCn1c2ccc(C(=O)CCl)cc2c2cc(C(=O)CCl)ccc21
- MIC [1]: 512 µg/mL (≈ 1220 µM)
- MIC [2]: 512 µg/mL (≈ 1220 µM)
- MIC [3]: 512 µg/mL (≈ 1220 µM)
- MIC [4]: 512 µg/mL (≈ 1220 µM)
- MIC [5]: 512 µg/mL (≈ 1220 µM)
- MIC [6]: 512 µg/mL (≈ 1220 µM)
- MIC [7]: 512 µg/mL (≈ 1220 µM)
- MIC [8]: 512 µg/mL (≈ 1220 µM)
- MIC [9]: 512 µg/mL (≈ 1220 µM)
- MIC [10]: 512 µg/mL (≈ 1220 µM)
- MIC [11]: 512 µg/mL (≈ 1220 µM)
- MIC [12]: 512 µg/mL (≈ 1220 µM)
- MIC [13]: 256 µg/mL (≈ 612 µM)

Compound: CCCCCCCCn1c2ccc(-c3csc(N)n3)cc2c2cc(-c3csc(N)n3)ccc21
- MIC [1]: 128 µg/mL (≈ 269 µM)
- MIC [2]: 512 µg/mL (≈ 1080 µM)
- MIC [3]: 512 µg/mL (≈ 1080 µM)
- MIC [4]: 512 µg/mL (≈ 1080 µM)
- MIC [5]: 32 µg/mL (≈ 67.3 µM)
- MIC [6]: 64 µg/mL (≈ 135 µM)
- MIC [7]: 512 µg/mL (≈ 1080 µM)
- MIC [8]: 512 µg/mL (≈ 1080 µM)
- MIC [9]: 512 µg/mL (≈ 1080 µM)
- MIC [10]: 256 µg/mL (≈ 538 µM)
- MIC [11]: 512 µg/mL (≈ 1080 µM)
- MIC [12]: 512 µg/mL (≈ 1080 µM)
- MIC [13]: 512 µg/mL (≈ 1080 µM)

Compound: CCn1cc(C(=O)O)c(=O)c2cc(F)c(N3CCNCC3)cc21 [NORFLOXACIN]
- MIC [1]: 4 µg/mL (≈ 12.5 µM)
- MIC [2]: 16 µg/mL (≈ 50.1 µM)
- MIC [3]: 2 µg/mL (≈ 6.26 µM)
- MIC [4]: 4 µg/mL (≈ 12.5 µM)
- MIC [5]: 8 µg/mL (≈ 25.1 µM)
- MIC [6]: 2 µg/mL (≈ 6.26 µM)
- MIC [7]: 1 µg/mL (≈ 3.13 µM)
- MIC [8]: 2 µg/mL (≈ 6.26 µM)
